Measurements taken from paper PMC6437697 (Journal of Medicinal Chemistry, 2019).
Values after ≈ are worked out from the molar mass of the structure shown.

Legend:
[1] = molecular target: T1, HIPK4 (Homo sapiens, UniProt Q8NE63); assay: KINOMEscan; format: binding; conditions: read-out: % control activity remaining
T1 construct: purchased Eurofins DiscoverX KINOMEscan
T1 sequence (Q8NE63 1-616): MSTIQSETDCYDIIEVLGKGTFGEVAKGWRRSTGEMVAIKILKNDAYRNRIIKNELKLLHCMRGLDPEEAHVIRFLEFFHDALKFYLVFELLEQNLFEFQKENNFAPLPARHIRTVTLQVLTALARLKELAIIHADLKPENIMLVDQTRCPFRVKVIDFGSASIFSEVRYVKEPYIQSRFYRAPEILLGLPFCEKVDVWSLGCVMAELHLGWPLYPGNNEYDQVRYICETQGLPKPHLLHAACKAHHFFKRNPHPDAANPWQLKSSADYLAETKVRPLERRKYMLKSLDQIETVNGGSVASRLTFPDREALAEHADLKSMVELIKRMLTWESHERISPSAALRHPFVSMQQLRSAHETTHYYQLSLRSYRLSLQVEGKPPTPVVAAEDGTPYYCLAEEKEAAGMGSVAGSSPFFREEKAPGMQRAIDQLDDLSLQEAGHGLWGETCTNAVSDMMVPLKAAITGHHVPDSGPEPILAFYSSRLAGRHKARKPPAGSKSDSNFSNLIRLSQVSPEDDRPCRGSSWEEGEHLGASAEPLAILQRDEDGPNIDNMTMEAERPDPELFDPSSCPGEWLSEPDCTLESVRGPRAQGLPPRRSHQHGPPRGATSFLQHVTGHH

[2] = molecular target: T2, DRAK2 (Homo sapiens, UniProt O94768); assay: KINOMEscan; format: binding; conditions: read-out: % control activity remaining
T2 construct: purchased Eurofins DiscoverX KINOMEscan
T2 sequence (O94768 1-372): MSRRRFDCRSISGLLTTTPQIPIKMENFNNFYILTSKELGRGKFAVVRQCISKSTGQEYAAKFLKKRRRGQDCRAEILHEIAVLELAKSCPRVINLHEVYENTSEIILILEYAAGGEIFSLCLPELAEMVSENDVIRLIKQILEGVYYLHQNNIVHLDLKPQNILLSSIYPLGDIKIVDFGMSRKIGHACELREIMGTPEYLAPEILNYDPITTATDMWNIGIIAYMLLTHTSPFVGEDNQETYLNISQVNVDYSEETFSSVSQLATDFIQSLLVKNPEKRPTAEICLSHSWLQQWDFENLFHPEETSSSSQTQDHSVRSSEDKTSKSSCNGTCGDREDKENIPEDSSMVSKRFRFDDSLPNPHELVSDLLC

[3] = molecular target: T3, KIT(V559D) (Homo sapiens, UniProt P10721, V559D); assay: KINOMEscan; format: binding; conditions: read-out: % control activity remaining
T3 construct: purchased Eurofins DiscoverX KINOMEscan

[4] = molecular target: T4, CDC2L2 (Homo sapiens, UniProt Q9UQ88); assay: KINOMEscan; format: binding; conditions: read-out: % control activity remaining
T4 construct: purchased Eurofins DiscoverX KINOMEscan
T4 sequence (Q9UQ88 1-783): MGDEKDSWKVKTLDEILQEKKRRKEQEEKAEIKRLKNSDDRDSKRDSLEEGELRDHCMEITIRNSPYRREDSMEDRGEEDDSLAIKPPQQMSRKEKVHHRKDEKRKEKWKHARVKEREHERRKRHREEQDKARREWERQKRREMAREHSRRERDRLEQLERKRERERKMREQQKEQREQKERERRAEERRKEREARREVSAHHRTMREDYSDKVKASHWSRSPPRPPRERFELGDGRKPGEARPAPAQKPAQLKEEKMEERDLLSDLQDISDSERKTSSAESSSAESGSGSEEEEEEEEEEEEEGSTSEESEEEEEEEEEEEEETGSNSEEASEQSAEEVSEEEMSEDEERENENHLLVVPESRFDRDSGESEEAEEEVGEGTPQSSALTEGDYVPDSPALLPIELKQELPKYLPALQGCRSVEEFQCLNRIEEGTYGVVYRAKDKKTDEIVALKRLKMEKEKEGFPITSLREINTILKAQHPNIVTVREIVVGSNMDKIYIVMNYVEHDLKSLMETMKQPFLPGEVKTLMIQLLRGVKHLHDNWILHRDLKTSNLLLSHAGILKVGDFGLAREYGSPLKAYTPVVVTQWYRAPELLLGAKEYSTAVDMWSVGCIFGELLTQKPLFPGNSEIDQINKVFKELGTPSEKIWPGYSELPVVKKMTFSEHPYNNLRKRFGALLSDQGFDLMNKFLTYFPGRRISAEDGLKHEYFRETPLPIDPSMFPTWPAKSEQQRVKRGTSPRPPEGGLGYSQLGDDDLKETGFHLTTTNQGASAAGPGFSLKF

[5] = molecular target: T5, FLT1 (Homo sapiens, UniProt P17948); assay: KINOMEscan; format: binding; conditions: read-out: % control activity remaining
T5 construct: purchased Eurofins DiscoverX KINOMEscan

[6] = in vitro; conditions: human
[7] = molecular target: T6, MLK3 (Homo sapiens, UniProt Q16584); assay: KINOMEscan; format: binding; conditions: read-out: % control activity remaining
T6 construct: purchased Eurofins DiscoverX KINOMEscan

[8] = Aqueous buffer solubility (KSol)
[9] = molecular target: T7, WNK2 (Homo sapiens, UniProt Q9Y3S1); assay: KINOMEscan; format: binding; conditions: read-out: % control activity remaining
T7 construct: purchased Eurofins DiscoverX KINOMEscan

[10] = molecular target: T8, CDK4 (Homo sapiens, UniProt P11802); assay: KINOMEscan; format: binding; conditions: read-out: % control activity remaining
T8 construct: purchased Eurofins DiscoverX KINOMEscan

[11] = Measured lipophilicity Log D7.4; conditions: pH 7.4
[12] = molecular target: T9, TSSK3 (Homo sapiens, UniProt Q96PN8); assay: KINOMEscan; format: binding; conditions: read-out: % control activity remaining
T9 construct: purchased Eurofins DiscoverX KINOMEscan

[13] = tested on: FLT3(ITD,D835V); assay: KINOMEscan; format: binding, human; conditions: 1000 nM
[14] = tested on: IRE1α-dependent splicing of XBP1u-luciferase mRNA reporter in HEK293 cells; assay: XBP1 luciferase fusion mRNA splicing reporter in HEK293 cells; format: cell-based, human; conditions: Homo sapiens, HEK293, read-out: tunicamycin- and thapsigargin-induced splicing of XBP1 luciferase fusion mRNA IC50
[15] = molecular target: T10, VRK2 (Homo sapiens, UniProt Q86Y07); assay: KINOMEscan; format: binding; conditions: read-out: % control activity remaining
T10 construct: purchased Eurofins DiscoverX KINOMEscan

[16] = tested on: GFP-IRE1α oligomerization in HEK293 cells; assay: GFP-IRE1α foci (oligomerization) assay in HEK293 cells; format: cell-based, human; conditions: absence of tunicamycin
[17] = molecular target: T11, CAMK1B (Homo sapiens, UniProt Q6P2M8); assay: KINOMEscan; format: binding; conditions: read-out: % control activity remaining
T11 construct: purchased Eurofins DiscoverX KINOMEscan

[18] = molecular target: IRE1β (Homo sapiens, UniProt Q76MJ5); assay: biochemical; format: binding
[19] = molecular target: T12, WNK4 (Homo sapiens, UniProt Q96J92); assay: KINOMEscan; format: binding; conditions: read-out: % control activity remaining
T12 construct: purchased Eurofins DiscoverX KINOMEscan

[20] = tested on: FLT3(ITD,D835Y); assay: KINOMEscan; format: binding, human; conditions: 1000 nM

T6 sequence (Q16584 whole entry): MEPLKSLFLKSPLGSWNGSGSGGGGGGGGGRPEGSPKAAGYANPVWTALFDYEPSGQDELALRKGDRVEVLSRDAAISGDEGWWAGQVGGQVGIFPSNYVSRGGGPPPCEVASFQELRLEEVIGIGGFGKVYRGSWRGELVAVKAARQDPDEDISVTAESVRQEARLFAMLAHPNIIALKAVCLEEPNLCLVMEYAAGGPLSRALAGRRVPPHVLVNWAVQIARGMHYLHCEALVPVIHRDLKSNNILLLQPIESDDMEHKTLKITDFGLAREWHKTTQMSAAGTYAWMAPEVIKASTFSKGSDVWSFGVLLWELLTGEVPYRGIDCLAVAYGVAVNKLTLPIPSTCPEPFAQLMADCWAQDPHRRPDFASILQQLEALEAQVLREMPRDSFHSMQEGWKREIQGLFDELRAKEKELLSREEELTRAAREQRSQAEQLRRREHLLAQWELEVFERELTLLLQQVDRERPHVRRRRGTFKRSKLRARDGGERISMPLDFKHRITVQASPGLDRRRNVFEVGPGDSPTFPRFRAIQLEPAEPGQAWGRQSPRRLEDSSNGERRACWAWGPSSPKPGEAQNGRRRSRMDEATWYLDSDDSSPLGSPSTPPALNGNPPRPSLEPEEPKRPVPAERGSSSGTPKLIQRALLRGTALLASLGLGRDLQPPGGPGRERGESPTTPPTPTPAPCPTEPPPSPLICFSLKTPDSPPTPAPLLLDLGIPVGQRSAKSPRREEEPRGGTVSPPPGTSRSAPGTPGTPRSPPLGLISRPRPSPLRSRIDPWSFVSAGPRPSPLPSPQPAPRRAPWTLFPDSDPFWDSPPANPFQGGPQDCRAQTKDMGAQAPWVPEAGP
T5 sequence (P17948 27-1338): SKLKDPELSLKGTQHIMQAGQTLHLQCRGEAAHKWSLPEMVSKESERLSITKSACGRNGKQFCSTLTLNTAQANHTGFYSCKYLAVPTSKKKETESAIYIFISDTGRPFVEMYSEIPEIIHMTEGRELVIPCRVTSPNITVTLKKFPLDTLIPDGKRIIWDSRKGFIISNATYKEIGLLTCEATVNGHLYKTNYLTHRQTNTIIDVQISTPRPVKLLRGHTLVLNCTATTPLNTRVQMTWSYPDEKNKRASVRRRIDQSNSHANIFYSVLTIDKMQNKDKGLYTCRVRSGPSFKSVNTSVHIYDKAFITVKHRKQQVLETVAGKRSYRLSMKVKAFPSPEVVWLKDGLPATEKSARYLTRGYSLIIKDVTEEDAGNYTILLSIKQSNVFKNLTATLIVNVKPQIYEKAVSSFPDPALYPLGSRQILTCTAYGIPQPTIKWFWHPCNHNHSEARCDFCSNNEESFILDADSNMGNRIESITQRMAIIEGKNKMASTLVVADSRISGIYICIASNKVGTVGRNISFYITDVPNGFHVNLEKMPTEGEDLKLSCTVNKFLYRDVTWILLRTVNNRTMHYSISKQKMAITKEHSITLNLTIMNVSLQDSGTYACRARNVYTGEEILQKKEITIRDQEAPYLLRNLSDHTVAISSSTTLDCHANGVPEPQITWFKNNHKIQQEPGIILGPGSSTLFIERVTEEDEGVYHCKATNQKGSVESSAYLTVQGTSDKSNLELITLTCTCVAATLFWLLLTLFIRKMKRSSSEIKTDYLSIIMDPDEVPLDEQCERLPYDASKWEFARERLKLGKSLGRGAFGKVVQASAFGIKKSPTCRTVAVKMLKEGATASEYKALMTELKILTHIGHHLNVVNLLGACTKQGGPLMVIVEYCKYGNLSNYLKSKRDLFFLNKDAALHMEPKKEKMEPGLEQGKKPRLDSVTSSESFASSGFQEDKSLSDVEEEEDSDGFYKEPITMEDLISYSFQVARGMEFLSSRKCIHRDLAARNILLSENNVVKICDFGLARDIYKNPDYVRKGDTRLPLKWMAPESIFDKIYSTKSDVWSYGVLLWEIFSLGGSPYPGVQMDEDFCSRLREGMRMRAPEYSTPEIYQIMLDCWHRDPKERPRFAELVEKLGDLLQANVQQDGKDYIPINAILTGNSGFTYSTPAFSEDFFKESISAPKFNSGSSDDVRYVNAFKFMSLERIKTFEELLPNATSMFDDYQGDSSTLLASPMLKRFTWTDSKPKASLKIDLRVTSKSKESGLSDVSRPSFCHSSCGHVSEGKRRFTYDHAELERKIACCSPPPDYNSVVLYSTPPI
IRE1β, sequence (Q76MJ5 35-926): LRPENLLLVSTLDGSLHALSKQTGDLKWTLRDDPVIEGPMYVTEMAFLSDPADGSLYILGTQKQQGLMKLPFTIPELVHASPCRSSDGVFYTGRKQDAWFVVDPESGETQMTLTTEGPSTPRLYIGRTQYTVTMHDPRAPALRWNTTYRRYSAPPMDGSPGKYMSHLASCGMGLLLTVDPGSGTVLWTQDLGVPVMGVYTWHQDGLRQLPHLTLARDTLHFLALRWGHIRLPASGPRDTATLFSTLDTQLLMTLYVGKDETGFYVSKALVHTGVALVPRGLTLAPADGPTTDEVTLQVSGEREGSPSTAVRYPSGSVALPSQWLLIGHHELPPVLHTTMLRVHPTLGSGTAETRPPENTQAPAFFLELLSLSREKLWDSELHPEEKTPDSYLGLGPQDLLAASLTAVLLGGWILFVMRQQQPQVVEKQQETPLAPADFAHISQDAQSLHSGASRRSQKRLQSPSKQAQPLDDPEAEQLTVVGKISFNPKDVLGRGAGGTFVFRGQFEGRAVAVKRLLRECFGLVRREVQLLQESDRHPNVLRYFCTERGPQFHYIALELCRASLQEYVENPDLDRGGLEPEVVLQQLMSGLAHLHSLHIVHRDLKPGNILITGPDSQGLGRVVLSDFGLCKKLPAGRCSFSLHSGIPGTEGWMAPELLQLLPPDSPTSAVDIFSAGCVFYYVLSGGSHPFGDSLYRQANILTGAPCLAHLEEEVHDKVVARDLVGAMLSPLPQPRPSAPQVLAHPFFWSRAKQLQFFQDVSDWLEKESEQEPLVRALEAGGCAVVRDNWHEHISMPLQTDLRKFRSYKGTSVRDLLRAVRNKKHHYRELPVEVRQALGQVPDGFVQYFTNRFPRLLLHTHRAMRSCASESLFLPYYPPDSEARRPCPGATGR
T3 sequence (P10721 26-976 V559D): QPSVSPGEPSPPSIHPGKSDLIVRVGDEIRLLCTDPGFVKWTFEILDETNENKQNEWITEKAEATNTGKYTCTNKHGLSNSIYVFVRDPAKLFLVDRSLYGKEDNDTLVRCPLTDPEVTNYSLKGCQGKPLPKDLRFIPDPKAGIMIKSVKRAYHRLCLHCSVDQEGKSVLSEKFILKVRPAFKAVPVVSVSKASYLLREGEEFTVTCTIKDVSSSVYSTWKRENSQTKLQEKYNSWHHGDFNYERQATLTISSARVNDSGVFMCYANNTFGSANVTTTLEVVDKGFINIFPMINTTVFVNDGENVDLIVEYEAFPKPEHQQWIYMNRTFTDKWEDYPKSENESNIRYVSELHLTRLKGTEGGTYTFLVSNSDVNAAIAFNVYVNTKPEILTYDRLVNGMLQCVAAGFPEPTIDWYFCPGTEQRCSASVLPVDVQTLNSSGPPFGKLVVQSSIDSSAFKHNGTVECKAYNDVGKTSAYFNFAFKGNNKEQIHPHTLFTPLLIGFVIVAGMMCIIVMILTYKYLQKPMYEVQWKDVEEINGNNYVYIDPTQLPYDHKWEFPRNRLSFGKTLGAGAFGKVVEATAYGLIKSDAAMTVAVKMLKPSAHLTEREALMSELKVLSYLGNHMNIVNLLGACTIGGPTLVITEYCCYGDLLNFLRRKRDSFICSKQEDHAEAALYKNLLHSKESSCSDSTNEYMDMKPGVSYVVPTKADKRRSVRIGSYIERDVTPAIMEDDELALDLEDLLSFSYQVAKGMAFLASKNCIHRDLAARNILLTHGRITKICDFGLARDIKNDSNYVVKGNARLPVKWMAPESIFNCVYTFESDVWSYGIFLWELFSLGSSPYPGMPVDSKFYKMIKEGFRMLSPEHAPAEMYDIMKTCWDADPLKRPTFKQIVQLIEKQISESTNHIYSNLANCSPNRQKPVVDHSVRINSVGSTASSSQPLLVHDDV
T11 sequence (Q6P2M8 whole entry): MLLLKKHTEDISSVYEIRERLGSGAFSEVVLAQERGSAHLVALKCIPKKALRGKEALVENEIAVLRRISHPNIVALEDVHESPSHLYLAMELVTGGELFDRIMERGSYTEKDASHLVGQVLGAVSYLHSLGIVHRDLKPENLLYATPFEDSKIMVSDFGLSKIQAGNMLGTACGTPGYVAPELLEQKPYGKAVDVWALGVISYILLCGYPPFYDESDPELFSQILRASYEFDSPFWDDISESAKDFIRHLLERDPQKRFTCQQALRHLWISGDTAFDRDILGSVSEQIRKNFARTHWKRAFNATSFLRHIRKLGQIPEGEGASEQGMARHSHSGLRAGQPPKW
T8 sequence (P11802 whole entry): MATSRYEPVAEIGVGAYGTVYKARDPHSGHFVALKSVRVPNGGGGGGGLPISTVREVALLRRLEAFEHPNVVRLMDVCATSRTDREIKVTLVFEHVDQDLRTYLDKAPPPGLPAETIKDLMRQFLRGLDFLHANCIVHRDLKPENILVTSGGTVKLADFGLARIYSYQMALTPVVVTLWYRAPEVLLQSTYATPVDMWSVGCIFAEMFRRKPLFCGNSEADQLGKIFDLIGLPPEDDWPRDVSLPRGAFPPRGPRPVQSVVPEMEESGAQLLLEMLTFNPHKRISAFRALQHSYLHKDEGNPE
T9 sequence (Q96PN8 whole entry): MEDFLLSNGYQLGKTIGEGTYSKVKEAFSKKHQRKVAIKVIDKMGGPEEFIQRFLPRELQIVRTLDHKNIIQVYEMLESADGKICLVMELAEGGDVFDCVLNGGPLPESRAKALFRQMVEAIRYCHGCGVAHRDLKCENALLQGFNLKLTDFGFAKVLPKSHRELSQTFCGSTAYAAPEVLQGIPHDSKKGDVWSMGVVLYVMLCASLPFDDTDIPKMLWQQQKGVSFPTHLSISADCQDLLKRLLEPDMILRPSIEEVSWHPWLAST

Work on Clc1cc(NCC2CC2)c2ncc(-c3ccc4[nH]ncc4c3)n2n1 [compound 2, 6-Chloro-N-(cyclopropylmethyl)-3-(1H-indazol-5-yl)imidazo[1,2-b]pyridazin-8-amine] yielded a remaining binding at 1 µM [1] of 8.6%, a remaining binding at 1 µM [2] of 93% and a remaining binding at 1 µM [3] of 0.45%. The remaining binding at 1 µM [4] was 100%, the remaining binding at 1 µM [5] was 90% and the EC50 [6] was > 49 µM. The remaining binding at 1 µM [7] was 100%.

Work on O=C(CN1CCOCC1)N[C@H]1CC[C@H](Nc2cc(Cl)nn3c(-c4ccc5[nH]ncc5c4)cnc23)CC1 [compound 26] yielded a remaining binding at 1 µM [1] of 5.1%, a solubility [8] of 80 µM (≈ 40.7 µg/mL) and a remaining binding at 1 µM [2] of 61%. The remaining binding at 1 µM [3] was 0.05%, the remaining binding at 1 µM [4] was 99% and the remaining binding at 1 µM [9] was 34%. The remaining binding at 1 µM [10] was 100%, the remaining binding at 1 µM [5] was 11% and the EC50 [6] was > 49 µM. For the same compound, the logD [11] was 1.8, the remaining binding at 1 µM [12] was 100% and the “% control activity remaining” value [13] was 0.7%. It also gave a remaining binding at 1 µM [7] of 100%, an IC50 [14] of 0.68 to 1.63 µM and a remaining binding at 1 µM [15] of 98%. The “stimulation of GFP-IRE1α foci formation by compound on its own” value [16] was “No stimulation”, the remaining binding at 1 µM [17] was 75% and the IC50 [18] was 0.345 µM. For the same compound, the “selectivity for IRE1α over the IRE1β isoform” value [18] was 9 fold, the remaining binding at 1 µM [19] was 100% and the “% control activity remaining” value [20] was 25%.

Work on CN1CCC(CNc2cc(Cl)nn3c(-c4cc5nc(Nc6ccccc6)[nH]c5cc4F)cnc23)CC1 [compound 31, 6-Chloro-3-(6-fluoro-2-(phenylamino)-1H-benzo[d]imidazol-5-yl)-N-((1-methylpiperidin-4-yl)methyl)imidazo[1,2-b]pyridazin-8-amine] yielded a remaining binding at 1 µM [1] of 71%, a solubility [8] of 38 µM (≈ 19.2 µg/mL) and a remaining binding at 1 µM [2] of 92%. It also gave a remaining binding at 1 µM [3] of 67%, a remaining binding at 1 µM [4] of 90% and a remaining binding at 1 µM [9] of 100%. It also gave a remaining binding at 1 µM [10] of 100%, a remaining binding at 1 µM [5] of 45% and a logD [11] of 3.7. The remaining binding at 1 µM [12] was 91%, the “% control activity remaining” value [13] was 76% and the remaining binding at 1 µM [7] was 81%. The IC50 [14] was 0.68 to 1.63 µM, the remaining binding at 1 µM [15] was 82% and the “stimulation of GFP-IRE1α foci formation by compound on its own” value [16] was “No stimulation”. The remaining binding at 1 µM [17] was 100%, the IC50 [18] was 7.68 µM and the “selectivity for IRE1α over the IRE1β isoform” value [18] was 100 fold. The remaining binding at 1 µM [19] was 83% and the “% control activity remaining” value [20] was 77%.
